Literature values as cited in US6395721B1, “Low potency unpreserved sterile topical corticosteroid compositions for dermatitis” (priority 2000, dated 2002).

Columns and labels:
skin of human volunteers = system: skin of human volunteers; parameters: key to Ranking of Topical steroids for Psoriasis (potency group): I: Group 1 is the most potent; potency descends with each group to Group VII; III: potency descends with each group to Group VII; IV: potency descends with each group to Group VII; potency descends with each group to Group VII; potency descends with each group to Group VII; Group VII, which is least potent; conditions: for potency rating of steroid compositions on a scale of 1 to 7, with 7 being the least potent: rating in words, Cornell and Stoughton; for potency of corticosteroid (in words): as worded for contemplated compositions, aldomethasone and desonide at 0.05%; for Ranking of Topical steroids for Psoriasis (potency group): no significant difference of agents within any given group
stripped skin = conditions: applied to stripped skin, which develops erythema

Compound	potency rating of steroid compositions on a scale of 1 to 7, with 7 being the least potent (skin of human volunteers)	potency of corticosteroid (in words) (skin of human volunteers)	Ranking of Topical steroids for Psoriasis (potency group) (skin of human volunteers)	effect on erythema of stripped skin (stripped skin)
C[C@H]1C[C@H]2[C@@H]3CCC4=CC(=O)C=C[C@]4(C)[C@@]3(F)[C@@H](O)C[C@]2(C)[C@@]1(O)C(=O)CCl [Clobetasol]	among the most potent steroids			
C[C@]12CCC(=O)C=C1CC[C@@H]1[C@@H]2C(=O)C[C@@]2(C)[C@H]1CC[C@]2(O)C(=O)CO [cortisone]	Among the least potent steroids			
CC1(C)O[C@@H]2C[C@H]3[C@@H]4CCC5=CC(=O)C=C[C@]5(C)[C@H]4[C@@H](O)C[C@]3(C)[C@]2(C(=O)CO)O1 [desonide]	Among the least potent steroids	intermediate potency		
CCCC(=O)O[C@]1(C(=O)CO)CC[C@H]2[C@@H]3CCC4=CC(=O)CC[C@]4(C)[C@H]3[C@@H](O)C[C@@]21C [hydrocortisone butyrate]	Among the least potent steroids			
CCCCC(=O)O[C@]1(C(=O)CO)CC[C@H]2[C@@H]3CCC4=CC(=O)CC[C@]4(C)[C@H]3[C@@H](O)C[C@@]21C [hydrocortisone valerate]	Among the least potent steroids			
C[C@]12CCC(=O)C=C1CC[C@@H]1[C@@H]2[C@@H](O)C[C@@]2(C)[C@H]1CC[C@]2(O)C(=O)CO [hydrocortisone]	Among the least potent steroids		VII.	develop blanching
C[C@]12C=CC(=O)C=C1CC[C@@H]1[C@@H]2[C@@H](O)C[C@@]2(C)[C@H]1CC[C@]2(O)C(=O)CO [prednisolone]			VII.	
aldomethasone		low potency		
aldomethasone diproprionate	Among the least potent steroids	low potency		
flumethalone			VII.	
